For one data set, the system named is mouse. The note with it: cited from earlier work.
For data set [1], the target named is T1, HSD-1 (Homo sapiens, UniProt P28845). Briefly: Surface plasmon resonance binding kinetics in presence of NADPH (residence time). To be noted: 300 μM NADPH, reciprocal of the dissociation rate constant. The source says: Pseudo-irreversible HSD-1 inhibitors can be identified via in vitro enzyme kinetics evaluation, in which they are expected to show longer enzyme residence times compared to other HSD-1 inhibitors. Surface plasmon resonance (SPR) is the resonant oscillation of conduction electrons at the interface between negative and positive permittivity material stimulated by incident light. When a protein is bound to a surface, SPR can be used to detect ligand binding to the protein. […] Association and dissociation of test compounds were monitored in the presence of 300 µM NADPH throughout the experiment.

For data set [2] the following is noted: cited from earlier work; for plasma exposures after single doses, dose proportionality: low single doses; for estimated target capacity / capacity of saturable distribution: population pharmacokinetics model.
For data set [3] the following is noted: INCB-13739 diabetes; R05093151 non-alcoholic fatty liver disease; AZD4017 impaired wound healing; ABT-384 dementia; BI-187004 diabetes; cited from earlier work.
Data set [4] concerns urine tetrahydrocortisone. To be noted: healthy adults and elderly subjects; 7-21 days; cited from earlier work.
For data set [5] the following is noted: cynomolgus monkey liver; cited from earlier work.
For the next data set, the target named is T2, brain HSD-1 (Homo sapiens, UniProt P28845).
T2 construct: Brain HSD-1 occupancy following a single dose of SPI-62 3 mg; from tissue; host or cells: brain in vivo
To be noted: healthy adults; cited from earlier work.

For data set [6], the target named is T1, HSD-1. Briefly: Target-mediated drug disposition (TMDD) population PK / PK-PD model. To be noted: in vivo.
A further data set concerns the target T3, adipose HSD-1 (Homo sapiens, UniProt P28845).
T3 construct: infused continuously into subcutaneous abdominal adipose tissue via microdialysis catheters; from tissue; host or cells: human subcutaneous abdominal adipose tissue, in vivo
To be noted: in vivo; cited from earlier work.

A further data set addresses skin HSD-1 (Homo sapiens, UniProt P28845). The note with it: in vivo; cited from earlier work.
The target of the next data set is liver HSD-1 (Homo sapiens, UniProt P28845). The note with it: same subjects, multiple doses; cited from earlier work.
A further data set relates to rabbit. To be noted: cited from earlier work.
The mark [7] stands for this setting: read-out: Residence Time (converted).

The structures appear in SMILES notation. Like-named read-outs stand apart in the source and are kept apart here.

T1 sequence (P28845 whole entry): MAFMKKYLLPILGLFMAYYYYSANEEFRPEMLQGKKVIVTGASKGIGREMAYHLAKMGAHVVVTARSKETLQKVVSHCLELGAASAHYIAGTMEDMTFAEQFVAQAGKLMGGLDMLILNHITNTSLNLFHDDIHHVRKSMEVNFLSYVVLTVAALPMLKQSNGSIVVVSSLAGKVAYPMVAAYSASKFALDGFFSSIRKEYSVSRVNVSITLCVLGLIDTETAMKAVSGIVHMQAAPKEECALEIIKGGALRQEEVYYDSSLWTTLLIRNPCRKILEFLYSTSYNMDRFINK
T3 sequence (P28845 whole entry, the tested form may be a part): as the sequence (P28845 whole entry) above
Chain of liver HSD-1 (P28845 whole entry): as above
T2 sequence (P28845 whole entry): as above
Chain of skin HSD-1 (P28845 whole entry): as above

In the case of `CC1(C)[C@@H](OC(=O)CCC(=O)O)CC[C@]2(C)[C@H]3C(=O)C=C4[C@@H]5C[C@@](C)(C(=O)O)CC[C@]5(C)CC[C@@]4(C)[C@]3(C)CC[C@@H]12` [Carbenoxolone], the “GC-induced wound healing impairment” value with mouse is reported as “prevented”.
As to `O=C(CC1(c2ccccc2)C2CC3CC1CC(C2)C3O)N1CC(O)C1` (centres unmarked) [BMS-816336], the “residence time” value on HSD-1 [1] worked out at 2.15 min.
For the compound `CCS(=O)(=O)CCCC12CCC(c3nnc(-c4ccccc4C(F)(F)F)n3C)(CC1)CC2` [MK-0736, 3-(4-(3-(ethylsulfonyl)propyl)bicyclo[2.2.2]octan-1-yl)-4-methyl-5-(2-(trifluoromethyl)phenyl)-4H-1,2,4-triazole], the “plasma exposures after single doses, dose proportionality” value (“plasma exposures after single doses” below) in data set [2] is on record as “non-linear, saturable distribution PK”.
Take `N#Cc1ccc(-c2ccc(S(=O)(=O)Nc3cccc(N)n3)cc2)cc1` [PF915275]: the “residence time” value on HSD-1 [1] is 5.07 min. In the data set with mouse, the “GC-induced wound healing impairment” value is recorded as “prevented”.
Take `N#Cc1ccc2c(c1)[C@H]1CCCN(C(=O)c3ccc4nc[nH]c4c3)[C@H]1C2` [BI-187004, (4aR,9aS)-1-(1H-benzo[d]imidazole-6-carbonyl)-2,3,4,4a,9,9a-hexahydro-1H-indeno[2,1-b]pyridine-6-carbonitrile]: the “plasma exposures after single doses” value in data set [2] is given as “substantially below”. Also, the clinical trial efficacy result in data set [3] is on record as “lack of efficacy”.
Consider `F[C@H]1C[C@@](c2ccc(Cl)cc2)(c2nnc(C3CC3)n2C2CC2)C1` [MK-0916, 3-((1s,3s)-1-(4-chlorophenyl)-3-fluorocyclobutyl)-4,5-dicyclopropyl-4H-1,2,4-triazole], for which the residence time on HSD-1 [1] (setting [7]) is 3.25 min. Further, the “plasma levels after multiple doses / steady state, dose proportionality” value in data set [2] (in vivo) is listed as “approximately dose-proportional”. In data set [2], the “plasma exposures after single doses” value is listed as “substantial non-linearity” and the “estimated target capacity / capacity of saturable distribution” value was approximately 3 mg.
With `CC(C)(C(=O)N[C@H]1C2CC3CC1C[C@@](C(N)=O)(C3)C2)N1CCN(c2ccc(C(F)(F)F)cn2)CC1` [ABT-384, (1s,3R,4r,5S,7s)-4-(2-methyl-2-(4-(5-(trifluoromethyl)pyridin-2-yl)piperazin-1-yl)propanamido)adamantane-1-carboxamide], at HSD-1 [1] (setting [7]), the residence time is 43.5 min. The “liver cortisone levels (urine tetrahydrocortisone)” value in data set [4] is listed as “increased substantially”. The “plasma levels after multiple doses / steady state, dose proportionality” value in data set [2] (in vivo) was “approximately dose-proportional”. In data set [2], the “plasma exposures after single doses” value was “substantial non-linearity” and the “estimated target capacity / capacity of saturable distribution” value is approximately 1 mg. The retention in liver entry in data set [5] was “at least 77 days”. In addition, the clinical trial efficacy result in data set [3] was “lack of efficacy”. Also, at brain HSD-1, the “time after cessation of daily administration up to which complete brain HSD-1 inhibition was observed” value was “up to 40 hours”. Besides, the “Kd lower than the Ki” value on HSD-1 [6] is “approximately 60 fold”.
As for `CNC(=O)c1ccc(-c2ccc(C3(C(=O)N4CC[C@@]5(C4)OC(=O)c4ccccc45)CC3)cc2)cn1` [INCB-13739], at HSD-1 [1], the “residence time” value was 4.53 min. In addition, the clinical trial efficacy result in data set [3] was “support efficacy”.
`CC1CN(CC(=O)NC2C3CC4CC2CC(C(N)=O)(C4)C3)S(=O)(=O)N(c2c(Cl)cc(C(F)(F)F)cc2Cl)C1` [KR-67607, (1s,3R,4s,5S,7s)-4-(2-(6-(2,6-dichloro-4-(trifluoromethyl)phenyl)-4-methyl-1,1-dioxido-1,2,6-thiadiazinan-2-yl)acetamido)adamantane-1-carboxamide]: the residence time at HSD-1 [1] (setting [7]) is 8.63 min.
As for `CCCSc1nc(N2CCC[C@@H](CC(=O)O)C2)ccc1C(=O)NC1CCCCC1` [AZD4017, (S)-2-(1-(5-(cyclohexylcarbamoyl)-6-(propylthio)pyridin-2-yl)piperidin-3-yl)acetic acid], on adipose HSD-1, the “adipose HSD-1 inhibition after a single dose” value was “demonstrated adipose HSD-1 inhibition”, the “adipose HSD-1 inhibition after repeated dosing” value was “no sustained inhibitory effect” and the “tachyphylaxis of human adipose HSD-1 inhibition with multiple dosing” value is recorded as “showed tachyphylaxis”. In addition, the “skin HSD-1 inhibition after multiple doses” value at skin HSD-1 is listed as “no skin HSD-1 inhibition”. In addition, the “liver HSD-1 inhibition” value on liver HSD-1 is given as “maximal”.
In the case of `CC1(C)[C@@H](O[C@H]2O[C@H](C(=O)O)[C@@H](O)[C@H](O)[C@H]2O[C@@H]2O[C@H](C(=O)O)[C@@H](O)[C@H](O)[C@H]2O)CC[C@]2(C)[C@H]3C(=O)C=C4[C@@H]5C[C@@](C)(C(=O)O)CC[C@]5(C)CC[C@@]4(C)[C@]3(C)CC[C@@H]12` [Glycyrrhizin], in the data set with rabbit, the “intraocular pressure increase associated with intravitreal triamcinolone” value is recorded as “partially prevented”.
Regarding `CC(C)[C@]1(C)SC(N[C@H]2C[C@@H]3CC[C@H]2C3)=NC1=O` [AMG-221, (S,E)-2-(((1S,2S,4R)-bicyclo[2.2.1]heptan-2-yl)imino)-5-isopropyl-5-methylthiazolidin-4-one], in [2], the “plasma exposures after single doses” value is on record as “nonlinearity of pharmacokinetics”.
As for `CC(C)(C)c1c(C(=O)NC2C3CC4CC(C3)CC2C4)cnn1-c1ccc(C(=O)O)cc1` (centres unmarked) [AZD8329, 4-(4-(((1r,3r,5r,7r)-adamantan-2-yl)carbamoyl)-5-(tert-butyl)-1H-pyrazol-1-yl)benzoic acid], the residence time on HSD-1 [1] (setting [7]) was 3.45 min. For the same compound, on adipose HSD-1, the “adipose HSD-1 inhibition after repeated dosing” value is “lost” and the “tachyphylaxis of human adipose HSD-1 inhibition with multiple dosing” value is on record as “showed tachyphylaxis”.
On to `O=C(c1csc(-c2cn[nH]c2)c1)N1[C@@H]2CC[C@H]1C[C@](O)(c1ncccn1)C2` [UE-2343, (5-(1H-pyrazol-4-yl)thiophen-3-yl)((1R,3r,5S)-3-hydroxy-3-(pyrimidin-2-yl)-8-azabicyclo[3.2.1]octan-8-yl)methanone], for which the “residence time” value on HSD-1 [1] is 9.05 min. Besides, the “plasma levels after single doses of 2 and 5 mg” value in data set [2] (in vivo) was “below the level of quantification”. In data set [2], the “plasma exposures after single doses” value is on record as “greater than dose-proportional”. The “mean maximum plasma concentration” value in [2] (single 10 mg dose) is 40.4 ng/mL.
Consider `CC(C)(O)c1cccn2c(C3(c4ccc(Cl)cc4)CC3)nnc12` [BMS-823778, 2-(3-(1-(4-chlorophenyl)cyclopropyl)-[1,2,4]triazolo[4,3-a]pyridin-8-yl)propan-2-ol], for which, at HSD-1 [1] (setting [7]), the residence time was 2.03 min. Besides, in data set [2] (in vivo), the “plasma levels after a single 0.1 or 0.5 mg dose” value was “not detected” and the “plasma levels after multiple doses / steady state, dose proportionality” value was “dose proportional”. The “plasma exposures after single doses” value in data set [2] is recorded as “less than dose proportional”.

The record behind these values is US12329745B2, “Methods and compositions for treating glucocorticoid excess” (Sparrow Pharmaceuticals, Inc., priority 2022, dated 2025).
